From US20170184612A1, “USE OF LEUKOCYTES AND NOVEL BIOMARKERS IN THE DIAGNOSIS, CONFIRMATION, AND TREATMENT OF A NEUROLOGICAL DISORDER” (The Trustees of Columbia University in the City of New York, priority 2014, published 2017)

Legend:
[1] = test system: peripheral blood mononuclear cells (PBMC), T cells; experiment: ELISpot assay, gamma-interferon release (SFC) after stimulation with a-synuclein epitope pools; assay type: cell-based, human; conditions: for Pool +: IFNg, Pool Stimulated, number of donors with a positive response, Donors tested 1
Procedure, shortened: (§1)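 Ficoll-isolated PBMC from PD patients and age-matched controls were stimulated 22 h at 37 °C with pools of candidate α-syn class I/II and phospho-S129 epitopes, then deconvoluted to single epitopes in responders. IFNγ and IL-5 spot-forming cells were counted colorimetrically, with ≥20 SFC per million cells counted as a response.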

[2] = test system: peripheral blood mononuclear cells (PBMC), T cells; experiment: ELISpot assay, IL-5 release (SFC) after stimulation with a-synuclein epitope pools; assay type: cell-based, human
Procedure, shortened: as §1

[3] = pool 'Phospho' (phosphorylated peptides)
[4] = Patients Summary, PD patients, of donors tested (peptide)
[5] = Patients Summary, PD patients, single peptide
[6] = Patients Summary, Phospho pool peptides
[7] = Patients Summary, Phospho pool peptides, 10 donors tested
[8] = number of donors positive to the single peptide, second 'Pool Stimulated' section (from r296), 12 donors tested
[9] = peptide + / donors tested (peptide), second 'Pool Stimulated' section (from r296), 12 donors tested
[10] = peptides of pool 'Poshpho', 8 donors tested
[11] = peptides of pool 'Poshpho', 8 donors tested, number of donors positive
[12] = single peptide, second 'Pool Stimulated' section (from r296), 12 donors tested

| Substance | Pool + [1] | IFNg Peptide + (donors positive to the peptide) [1, 4] | IFNg Response Frequency [1, 5] [%] | IFNg Total SFC [1, 5] [SFC] | IFNg Peptide + [1, 8] | IFNg Response Frequency [1, 9] [%] | IL-g Peptide + (donors positive to the peptide) [2, 4] | IL-g Response Frequency [2, 5] [%] | IL-g Total SFC [2, 5] [SFC] | IL-g Peptide + [2, 8] | IL-g Response Frequency [2, 9] [%] | IL-g Avg SFC [2, 12] [SFC] | IL-g Total SFC [2, 12] [SFC] | IFNg Total SFC [1, 12] [SFC] | further results |
| --- | --- | --- | --- | --- | --- | --- | --- | --- | --- | --- | --- | --- | --- | --- | --- |
| 3521.0056 (YEMPSEEGYQ; listed as Homo sapiens) | 0 | 0 | 0 | 0 | 0 | 0 | 0 | 0 | 0 | 1 | 50 | 89 | 89 | – | Pool + [1, 3]: 0; IFNg Response Frequency [1, 6]: 0%; IFNg Total SFC [1, 6]: 0 SFC; IFNg Peptide + (donors positive to the peptide) [1, 7]: 0; IFNg Avg SFC [1, 10]: 100 SFC; IFNg Response Frequency [1, 10]: 13%; IFNg Total SFC [1, 10]: 100 SFC; IFNg Peptide + [1, 11]: 1; IL-g Response Frequency [2, 6]: 0%; IL-g Total SFC [2, 6]: 0 SFC; IL-g Peptide + (donors positive to the peptide) [2, 7]: 0; IL-g Avg SFC [2, 10]: 167 SFC; IL-g Response Frequency [2, 10]: 13%; IL-g Total SFC [2, 10]: 167 SFC; IL-g Peptide + [2, 11]: 1 |
| 3521.0057 (NEEGAPQEGI; listed as Homo sapiens) | 0 | 0 | 0 | 0 | 1 | 50 | 0 | 0 | 0 | 0 | 0 | – | 0 | 26.7 | IFNg Avg SFC [1, 12]: 26.7 SFC |
| 3521.0058 (SEEGYQDYEP; listed as Homo sapiens) | 0 | 0 | 0 | 0 | 0 | 0 | 0 | 0 | 0 | 1 | 50 | 58 | 58 | – | Pool + [1, 3]: 1; IFNg Avg SFC [1, 6]: 107 SFC; IFNg Response Frequency [1, 6]: 20%; IFNg Total SFC [1, 6]: 213 SFC; IFNg Peptide + (donors positive to the peptide) [1, 7]: 1; IFNg Avg SFC [1, 10]: 26.7 SFC; IFNg Response Frequency [1, 10]: 13%; IFNg Total SFC [1, 10]: 26.7 SFC; IFNg Peptide + [1, 11]: 1; IL-g Avg SFC [2, 6]: 73 SFC; IL-g Response Frequency [2, 6]: 10%; IL-g Total SFC [2, 6]: 73 SFC; IL-g Peptide + (donors positive to the peptide) [2, 7]: 1; IL-g Response Frequency [2, 10]: 0%; IL-g Total SFC [2, 10]: 0 SFC; IL-g Peptide + [2, 11]: 0 |
| 3521.0059 (AEAAGKTKEG; listed as Homo sapiens) | 1 | 0 | 0 | 0 | 1 | 50 | 1 | 13 | 71 | 0 | 0 | – | 0 | 120 | IFNg Avg SFC [1, 12]: 120 SFC; IL-g Avg SFC [2, 5]: 71 SFC |
| 3521.0061 (AATGFVKKDQ; listed as Homo sapiens) | 0 | 0 | 0 | 0 | 1 | 50 | 0 | 0 | 0 | 1 | 50 | 195 | 195 | 84 | IFNg Avg SFC [1, 12]: 84 SFC |
| 3521.0062 (KTKKGVVHG; listed as Homo sapiens) | 0 | 1 | 17 | 113 | – | – | 1 | 17 | 40 | – | – | – | – | – | IFNg Avg SFC [1, 5]: 113 SFC; IL-g Avg SFC [2, 5]: 40 SFC |
| 3521.0063 (GVVHGVTTV; listed as Homo sapiens) | 1 | 1 | 50 | 143 | 0 | 0 | 0 | 0 | 0 | 0 | 0 | – | 0 | 0 | IFNg Avg SFC [1, 5]: 143 SFC |
| 3521.0064 (GVVHGVATV; listed as Homo sapiens) | 1 | 0 | 0 | 0 | 0 | 0 | 0 | 0 | 0 | 1 | 50 | 75 | 75 | 0 | – |
| 3521.0065 (FVKKDQLGK; listed as Homo sapiens) | 0 | 0 | 0 | 0 | 0 | 0 | 0 | 0 | 0 | 0 | 0 | – | 0 | 0 | – |
| 3521.0067 (KTKEGVVHG; listed as Homo sapiens) | 0 | 0 | 0 | 0 | – | – | 0 | 0 | 0 | – | – | – | – | – | – |
| 3521.0068 (GVAEAPGKTK; listed as Homo sapiens) | 0 | 0 | 0 | 0 | 0 | 0 | 0 | 0 | 0 | 0 | 0 | – | 0 | 0 | – |
